Measurements reported in US10499642B2, “Isoxazoline-substituted benzamides and analogues as insecticides” (SYNGENTA PARTICIPATIONS AG, priority 2015, dated 2019).

Assays:
Assay type in all cases: in vivo
Spodoptera littoralis = Spodoptera littoralis (Egyptian cotton leaf worm) cotton leaf disc test; conditions: foliar, 72 h, read-out: control (at least one of mortality, anti-feedant effect, and growth inhibition)
Outline: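 Cotton leaf discs on agar were sprayed with aqueous dilutions of 10′000 ppm DMSO stocks, dried and infested with five L1 larvae. Mortality, anti-feedant effect and growth inhibition were scored against untreated samples 3 days after infestation. Control = any of these higher than untreated.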

Myzus persicae = Myzus persicae (green peach aphid) sunflower leaf disc test; conditions: foliar, 144 h
Method: Myzus persicae (Green Peach Aphid):
Sunflower leaf discs were placed on agar in a 24-well microtiter plate and sprayed with test solutions at an application rate of 200 ppm. After drying, the leaf discs were infested with an aphid population of mixed ages. After an incubation period of 6 days after treatment, samples were checked for mortality. The following compounds gave at least 80% mortality of Myzus persicae: […]

Thrips tabaci = Thrips tabaci (onion thrips) sunflower leaf disc test; conditions: foliar, 144 h
Method: Thrips tabaci (Onion Thrips):
(§1) Sunflower leaf discs were placed on agar in 24-well microtiter plates and sprayed with aqueous test solutions prepared from 10′000 ppm DMSO stock solutions. After drying the leaf discs were infested with a thrips population of mixed ages. The samples were assessed for mortality 6 days after infestation.

Diabrotica Balteata = assay: Diabrotica balteata (corn root worm) maize sprout test; conditions: 96 h, read-out: effect in at least one of the two categories (mortality or growth inhibition)
Outline: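 Maize sprouts on agar were sprayed with aqueous test solutions made from 10′000 ppm DMSO stocks, dried, then infested with 6 to 10 L2 larvae per well. Mortality and growth inhibition versus untreated samples were assessed 4 days after infestation; application rate 200 ppm.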

Tetranychus urticae = Tetranychus urticae (two-spotted spider mite) bean leaf disc test; conditions: foliar, 192 h
Method: Tetranychus urticae (Two-Spotted Spider Mite):
as §1, with “Bean” for “Sunflower”, “discs” for “discs were placed”, “were” for “and”, “mite” for “thrips”, “on mixed population (mobile stages) 8” for “6”

Plutella xylostella = Plutella xylostella (diamond back moth) artificial diet test; conditions: 120 h, read-out: effect in at least one of the two categories (mortality or growth inhibition)
Outline: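 Artificial diet treated with aqueous compound solutions made from DMSO stocks, dried, then infested with L2 larvae (10 to 15 per well). Mortality and growth inhibition scored versus untreated controls 5 days after infestation. Application rate 200 ppm.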

CC1=NOC(NC(=O)c2ccc(C3=NO[C@@](c4cc(Cl)c(Cl)c(Cl)c4)(C(F)(F)F)C3)cc2Br)C1 (stereo partly drawn) [Compound A037, 2-bromo-N-(3-methyl-4,5-dihydroisoxazol-5-yl)-4-[(5S)-5-(3,4,5-trichlorophenyl)-5-(trifluoromethyl)-4H-isoxazol-3-yl]benzamide]
≥ 80%: percent control (mortality, anti-feedant effect or growth inhibition) at 200 ppm (Spodoptera littoralis) | mortality at 200 ppm (Myzus persicae) | mortality at 200 ppm (Thrips tabaci) | percent effect (mortality or growth inhibition) at 200 ppm (Diabrotica Balteata) | mortality at 200 ppm (Tetranychus urticae) | percent effect (mortality or growth inhibition) at 200 ppm (Plutella xylostella)
